# Columns and labels:
# lymphocyte count = assay: Lymphocyte count in mice; type: in vivo; conditions: 10 mg/kg p.o., blood at 4 hr, FIG. 2
# Method: A total of 6 mice were used in this study for each compound (Examples 1-6) and divided in two groups as Group 1 (vehicle, Dose: 10 mL/kg) and Group 2 (Compound, Dose: 10 mg/kg, p.o.). Animals in Group 1 were administered with vehicle. Animals in Group 2 were administered with solution formulation of PTC1566-1 at 10 mg/kg dose through oral route. Blood samples from Group 2 were collected under light isoflurane anesthesia from a set of three mice at 1 & 4 hr (p.o.) and from Group 1 blood samples were collected at 4 hr. Plasma was harvested by centrifugation of blood and stored at −70° C. until analysis. Brain was collected at 4 hr from Group 2 animals, weighed and transferred in a poly-propylene tube. Two volumes of PBS buffer (pH 7.4) was added and homogenized to get final volume of 3 times and stored below −70° C. until bioanalysis. Blood sample at 4 hr from both groups were used for lymphocyte count. Analysis Plasma and Brain samples were quantified by fit-for-purpose LCMS/MS method (LLOQ: 4.91 ng/mL for plasma and 14.73 ng/g for brain). For each of the six compounds tested, plasma concentration was greater than 2600 ng/mL at 1 hr and greater than 2100 ng/mL at 4 hr. For each of the six compounds tested, brain concentration was less than 200 ng/g. For each of the six compounds tested (Compound 15, Compound 18, Compound 19, Compound 16, Compound 11, and Compound 13), the lymphocyte count was less than 45% of control (FIG. 2).
# human S1P1 = human S1P1 (Homo sapiens (Human), UniProt P21453); assay: GTPγS binding assay (scintillation proximity assay); type: biochemical; conditions: S1P1 membrane from CHO-K1 Gαqi5 cells expressing full-length human S1P1; GTPγ35S SPA
# Method: S1P1 membrane is prepared from CHO-K1 Gαqi5 cells expression full-length human S1P1. Scintillation proximity assay (SPA) is performed by incubating membranes, GTPγ^35S, and compounds at various concentrations for 60 minutes. Wheat germ agglutinin-coated SPA beads are added and incubated for 60 minutes before centrifugation and scintillation counting.
# Chain of human S1P1 (P21453 whole entry): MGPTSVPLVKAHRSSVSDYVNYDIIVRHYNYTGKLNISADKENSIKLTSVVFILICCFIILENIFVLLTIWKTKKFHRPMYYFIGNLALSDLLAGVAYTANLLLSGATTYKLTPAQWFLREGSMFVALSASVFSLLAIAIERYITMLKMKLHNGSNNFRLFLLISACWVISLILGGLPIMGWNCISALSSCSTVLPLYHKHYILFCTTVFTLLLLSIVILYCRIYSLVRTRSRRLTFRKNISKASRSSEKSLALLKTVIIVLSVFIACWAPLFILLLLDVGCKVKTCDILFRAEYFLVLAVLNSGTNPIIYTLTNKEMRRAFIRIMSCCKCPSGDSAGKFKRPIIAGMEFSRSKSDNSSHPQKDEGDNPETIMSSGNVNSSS
Structure (SMILES),EC50 (human S1P1) [nM],lymphocyte count (lymphocyte count)
"O=C1CC[C@@H](COc2cc(Cl)c(-c3noc(-c4cn5cc(C(F)(F)F)cc(Cl)c5n4)n3)cc2Cl)N1 [Example 1, (S)-5-((2,5-dichloro-4-(5-(8-chloro-6-(trifluoromethyl)imidazo[1,2-a]pyridin-2-yl)-1,2,4-oxadiazol-3-yl)phenoxy)methyl)pyrrolidin-2-one]",< 1000,less than 45 % of control
"O=C1CC[C@H](COc2cc(Cl)c(-c3noc(-c4cn5cc(C(F)(F)F)cc(Cl)c5n4)n3)cc2Cl)N1 [Example 3, (R)-5-((2,5-dichloro-4-(5-(8-chloro-6-(trifluoromethyl)imidazo[1,2-a]pyridin-2-yl)-1,2,4-oxadiazol-3-yl)phenoxy)methyl)pyrrolidin-2-one]",–,less than 45 % of control
"CN1C[C@@H](Oc2cc(Cl)c(-c3noc(-c4cn5cc(C(F)(F)F)cc(Cl)c5n4)n3)cc2Cl)CCC1=O [Example 4, (S)-5-(2,5-dichloro-4-(5-(8-chloro-6-(trifluoromethyl)imidazo[1,2-a]pyridin-2-yl)-1,2,4-oxadiazol-3-yl)phenoxy)-1-methylpiperidin-2-one]",–,less than 45 % of control

# Now from value to compound, other results behind:
EC50 (human S1P1) [nM],Structure (SMILES),lymphocyte count (lymphocyte count)
< 1000,"CN1C[C@H](Oc2cc(Cl)c(-c3noc(-c4cn5cc(C(F)(F)F)cc(Cl)c5n4)n3)cc2Cl)CCC1=O [Example 6, (R)-5-(2,5-dichloro-4-(5-(8-chloro-6-(trifluoromethyl)imidazo[1,2-a]pyridin-2-yl)-1,2,4-oxadiazol-3-yl)phenoxy)-1-methylpiperidin-2-one]",less than 45 % of control
< 1000,"O=C1CC[C@@H](Oc2cc(Cl)c(-c3noc(-c4cn5cc(C(F)(F)F)cc(Cl)c5n4)n3)cc2Cl)CN1 [Example 5, (R)-5-(2,5-dichloro-4-(5-(8-chloro-6-(trifluoromethyl)imidazo[1,2-a]pyridin-2-yl)-1,2,4-oxadiazol-3-yl)phenoxy)piperidin-2-one]",less than 45 % of control
